Measured values from ChEMBL document CHEMBL1141740, “Studies on the Synthesis of Elegan-Type Linear Diterpenes: The Efficient Total Syntheses of Eleganolone, Eleganolone Acetate, Elegandiol, Eleganonal, and Epoxyeleganolone” (J Nat Prod, 1998).

Key:
Type in all cases: functional, tissue-based
Conditions in all cases: Cavia porcellus
[1] = tested on: Ileum; test: Relaxation activity in guinea pig ileum assessed as relaxation of BaCl2-induced muscle contractions
[2] = tested on: Ileum; test: Relaxation activity in guinea pig ileum assessed as inhibition of histamine-induced muscle contractions
[3] = tested on: Ileum; test: Relaxation activity in guinea pig ileum assessed as inhibition of acetylcholine-induced muscle contractions
[4] = tested on: Ileum; test: Relaxation activity in guinea pig ileum assessed as relaxation of KCl-induced muscle contractions

IC50 [1] [µM]	IC50 [2] [µM]	IC50 [3] [µM]	IC50 [4] [µM]	SMILES	Activity [1]	Activity [4]
45.7	6.61	19.5	33.9	CC(=O)OC/C=C(\C)CC/C=C(\C)CC/C=C(\C)CC(=O)C=C(C)C [ELEGANOLONE ACETATE]	Dose-dependent effect	Dose-dependent effect
45.7	14.5	25.1	18.6	CC(C)=CC(=O)C/C(C)=C/CC/C(C)=C/CC/C(C)=C/CO [ELEGANOLONE]	Dose-dependent effect	Dose-dependent effect
